We go through 10 compounds from US9944635B2, “Deuterated pyrazino[2,1-a]isoquinoline compounds and methods of treatment using the same” (Concert Pharmaceuticals, Inc., priority 2011, dated 2018).

Read-outs that look alike come from different tables or passages of the source.

The nature of data set [1]: Metabolic stability in human liver microsomes (in vitro half-life). Format: in vitro ADME. As for the experimental part:
Human liver microsomes (20 mg/mL) are obtained from Xenotech, LLC (Lenexa, Kans.). β-nicotinamide adenine dinucleotide phosphate, reduced form (NADPH), magnesium chloride (MgCl2), and dimethyl sulfoxide (DMSO) are purchased from Sigma-Aldrich. 7.5 mM stock solutions of test compounds were prepared in DMSO. The 7.5 mM stock solutions were diluted to 50 μM in acetonitrile (ACN). The 20 mg/mL human liver microsomes were diluted to 0.625 mg/mL in 0.1 M potassium phosphate buffer, pH 7.4, containing 3 mM MgCl2. The diluted microsomes were added to wells of a 96-well deep-well polypropylene plate in triplicate. A 10 μL aliquot of the 50 μM test compound was added to the microsomes and the mixture was pre-warmed for 10 minutes. Reactions were initiated by addition of pre-warmed NADPH solution. The final reaction volume was 0.5 mL and contained 0.5 mg/mL human liver microsomes, 1.0 μM test compound, and 2 mM NADPH in 0.1 M potassium phosphate buffer, pH 7.4, and 3 mM MgCl2. The reaction mixtures were incubated at 37° C., and 50 μL aliquots were removed at 0, 5, 10, 20, and 30 minutes and added to shallow-well 96-well plates which contained 50 μL of ice-cold ACN with internal standard to stop the reactions. The plates were stored at 4° C. for 20 minutes after which 100 μL of water was added to the wells of the plate before centrifugation to pellet precipitated proteins. Supernatants were transferred to another 96-well plate and analyzed for amounts of parent remaining by LC-MS/MS using an Applied Bio-systems API 4000 mass spectrometer. […] Testing was done in triplicate.

The conditions of data set [2]: FDA label for BILTRICIDE; cited from earlier work.
The test system of a further data set is schistosoma. The following applies: enantiomer comparison, Meyer et al. 2009; cited from earlier work.
Setting [3] is: pH 7.4, Table 1, 0.5 mg/mL HLM, 1.0 μM test compound, 2 mM NADPH, 37° C., read-out: t1/2 Run No. 4.
Setting [4] is: pH 7.4, Table 1, average of runs 1-4, read-out: t1/2 AVE ± SD.
Setting [5] is: pH 7.4, Table 2, 0.5 mg/mL HLM, 1.0 μM test compound, 2 mM NADPH, 37° C., read-out: t1/2 Run No. 5.
The mark [6] stands for this setting: pH 7.4, Table 2, 0.5 mg/mL HLM, 1.0 μM test compound, 2 mM NADPH, 37° C., read-out: t1/2 Run No. 6.
[7] abbreviates: pH 7.4, Table 2, 0.5 mg/mL HLM, 1.0 μM test compound, 2 mM NADPH, 37° C., read-out: t1/2 Run No. 7.
Setting [8] is: pH 7.4, Table 2, 0.5 mg/mL HLM, 1.0 μM test compound, 2 mM NADPH, 37° C., read-out: t1/2 Run No. 8.
Setting [9] is: pH 7.4, Table 3, 0.5 mg/mL HLM, 1.0 μM test compound, 2 mM NADPH, 37° C., read-out: Half-life (t½) Run No. 9.
The mark [10] stands for this setting: pH 7.4, Table 3, 0.5 mg/mL HLM, 1.0 μM test compound, 2 mM NADPH, 37° C., read-out: Half-life (t½) Run No. 10.
Where [11] appears, read: pH 7.4, Table 3, 0.5 mg/mL HLM, 1.0 μM test compound, 2 mM NADPH, 37° C., read-out: Half-life (t½) Run No. 11.
Where [12] appears, read: pH 7.4, Table 3, 0.5 mg/mL HLM, 1.0 μM test compound, 2 mM NADPH, 37° C., read-out: Half-life (t½) Run No. 12.
Setting [13] is: pH 7.4, Table 3, average of runs 9-12, read-out: Half-life (t½) AVE ± SD.
Setting [14] is: pH 7.4, Table 2, average of runs 5-8, read-out: t1/2 AVE ± SD.
Where [15] appears, read: pH 7.4, Table 1, 0.5 mg/mL HLM, 1.0 μM test compound, 2 mM NADPH, 37° C., read-out: t1/2 Run No. 1.
[16] abbreviates: pH 7.4, Table 1, 0.5 mg/mL HLM, 1.0 μM test compound, 2 mM NADPH, 37° C., read-out: t1/2 Run No. 2.
Where [17] appears, read: pH 7.4, Table 1, 0.5 mg/mL HLM, 1.0 μM test compound, 2 mM NADPH, 37° C., read-out: t1/2 Run No. 3.

With `O=C(C1CCCCC1)N1CC(=O)N2CCc3ccccc3C2C1` (centres unmarked) [Praziquantel, 2-(cyclohexylcarbonyl)-1,2,3,6,7,11b-hexahydro-4H-pyrazino[2,1-a]isoquinolin-4-one, reference compound], the half-life at 1 μM is 44.7 min in data set [1] (setting [3]); 38.9 ± 3.9 min in data set [1] (setting [4]); 41.2 min in data set [1] (setting [5]); 43.8 min in data set [1] (setting [6]); 30.6 min in data set [1] (setting [7]); 36.9 min in data set [1] (setting [8]). For the same compound, the half-life at 1 μM is 29.5 min in data set [1] (setting [9]); 31.5 min in data set [1] (setting [10]); 35.1 min in data set [1] (setting [11]); 30.5 min in data set [1] (setting [12]); 31.7 ± 2.5 min in data set [1] (setting [13]). In addition, the “portion of a dose excreted in the kidneys” value in data set [2] was “Approximately 80%”. Besides, the “portion of the renally excreted dose in the form of metabolites” value in data set [2] is > 99%.

Take `O=C(C1CCCCC1)N1CC(=O)N2CCc3ccccc3[C@@H]2C1` [(R) Praziquantel]: the schistosomicidal activity result in the data set on schistosoma is recorded as “has schistosomicidal activity”.

As to `[2H]C1([2H])C(C(=O)N2CC(=O)N3CCc4ccccc4C3C2)C([2H])([2H])C([2H])([2H])C([2H])([2H])C1([2H])[2H]` (centres unmarked) [Compound 103, 2-(Cyclohexane-2,2,3,3,4,4,5,5,6,6-d10-carbonyl)-2,3,6,7-tetrahydro-1H-pyrazino[2,1-a]isoquinolin-4(11bH)-one], the half-life at 1 μM in data set [1] (setting [5]) was found to be 65.1 min; in data set [1] (setting [6]), 51.6 min; in data set [1] (setting [7]) it was 60.6 min; in data set [1] (setting [8]), 69.3 min; in data set [1] (setting [14]), 61.7 ± 7.6 min.

As to `[2H]C1([2H])C([2H])([2H])C([2H])([2H])C([2H])(C(=O)N2CC(=O)N3CCc4ccccc4[C@@H]3C2)C([2H])([2H])C1([2H])[2H]` [102(a), (R)-2-(Cyclohexane-d11-carbonyl)-2,3,6,7-tetrahydro-1H-pyrazino[2,1-a]isoquinolin-4(11bH)-one], the half-life at 1 μM was found to be 57.4 min in data set [1] (setting [9]); 53.6 min in data set [1] (setting [10]); 50.1 min in data set [1] (setting [11]); 46 min in data set [1] (setting [12]); 51.8 ± 4.9 min in data set [1] (setting [13]).

With `[2H]C1([2H])C(C(=O)N2CC(=O)N3CCc4ccccc4[C@@H]3C2)C([2H])([2H])C([2H])([2H])C([2H])([2H])C1([2H])[2H]` [103(a), (R)-2-(2,2,3,3,4,4,5,5,6,6-d10-Cyclohexanecarbonyl)-2,3,6,7-tetrahydro-1H-pyrazino[2,1-a]isoquinolin-4(11bH)-one], the half-life at 1 μM in data set [1] (setting [9]) was 52.7 min; in data set [1] (setting [11]) it was 50 min; in data set [1] (setting [12]), 55.5 min; in data set [1] (setting [13]) it was 50 ± 5.9 min.

Regarding `[2H]C1([2H])C([2H])([2H])C([2H])([2H])C([2H])(C(=O)N2CC(=O)N3CCc4ccccc4C3C2)C([2H])([2H])C1([2H])[2H]` (centres unmarked) [Compound 102, 2-(Cyclohexane-d11-carbonyl)-2,3,6,7-tetrahydro-1H-pyrazino[2,1-a]isoquinolin-4(11bH)-one], the half-life at 1 μM in data set [1] (setting [15]) was 56.4 min; in data set [1] (setting [16]), 55.4 min; in data set [1] (setting [17]), 44.8 min; in data set [1] (setting [3]), 66.2 min; in data set [1] (setting [4]) it was 55.7 ± 8.7 min; in data set [1] (setting [5]) it was 54.8 min. The half-life at 1 μM in data set [1] (setting [6]) was determined as 50.6 min; in data set [1] (setting [7]) it was 44.9 min; in data set [1] (setting [8]) it was 52.4 min; in data set [1] (setting [14]), 50.7 ± 4.2 min.

As to `[2H]C1([2H])CCC(C(=O)N2CC(=O)N3CCc4ccccc4[C@@H]3C2)CC1` [101(a), (R)-2-(4,4-d2-Cyclohexanecarbonyl)-2,3,6,7-tetrahydro-1H-pyrazino[2,1-a]isoquinolin-4(11bH)-one], the half-life at 1 μM stood at 48.9 min in data set [1] (setting [9]); 46.7 min in data set [1] (setting [10]); 56.3 min in data set [1] (setting [11]); 45.8 min in data set [1] (setting [12]); 49.4 ± 4.8 min in data set [1] (setting [13]).

As for `[2H]C1([2H])CC(C(=O)N2CC(=O)N3CCc4ccccc4[C@@H]3C2)CC([2H])([2H])C1([2H])[2H]` [109(a), (R)-2-(3,3,4,4,5,5-d6-Cyclohexanecarbonyl)-2,3,6,7-tetrahydro-1H-pyrazino[2,1-a]isoquinolin-4(11bH)-one], the half-life at 1 μM in data set [1] (setting [9]) worked out at 39.5 min; in data set [1] (setting [10]), 38.7 min; in data set [1] (setting [11]) it was 43.2 min; in data set [1] (setting [12]), 55.4 min; in data set [1] (setting [13]) it was 44.2 ± 7.7 min.

Turning to `[2H]C1([2H])CCC(C(=O)N2CC(=O)N3CCc4ccccc4C3C2)CC1` (centres unmarked) [Compound 101, 2-(Cyclohexane-4,4-d2-carbonyl)-2,3,6,7-tetrahydro-1H-pyrazino[2,1-a]isoquinolin-4(11bH)-one], the half-life at 1 μM in data set [1] (setting [15]) amounted to 47.4 min; in data set [1] (setting [16]), 43.6 min; in data set [1] (setting [17]) it was 43.1 min; in data set [1] (setting [3]), 52.7 min; in data set [1] (setting [4]), 46.7 ± 4.4 min; in data set [1] (setting [5]), 56.7 min. The figures for the half-life at 1 μM in data set [1] (setting [6]), in data set [1] (setting [8]) and in data set [1] (setting [14]) were 53.9 min, 60.1 min and 52.2 ± 9.7 min, respectively.

`[2H]C1([2H])CC(C(=O)N2CC(=O)N3CCc4ccccc4C3C2)CC([2H])([2H])C1([2H])[2H]` (centres unmarked) [Compound 109, 2-(Cyclohexane-3,3,4,4,5,5,-d6-carbonyl)-2,3,6,7-tetrahydro-1H-pyrazino[2,1-a]isoquinolin-4(11bH)-one]: the half-life at 1 μM in data set [1] (setting [5]) came out at 55.7 min; in data set [1] (setting [6]), 53.5 min; in data set [1] (setting [7]) it was 46.4 min; in data set [1] (setting [8]), 51.2 min; in data set [1] (setting [14]) it was 52.2 ± 4.6 min.
